# Source: patent publication US20150017673A1, “COMPOSITIONS AND METHODS FOR DRUG-SENSITIZATION OR INHIBITION OF A CANCER CELL” (priority 2012, published 2015)
# Like-named read-outs stand apart in the source and are kept apart here.
# Tests used:
# ROS in G3 lymphoma cells = test: Intracellular ROS (CellROX, flow cytometry) in G3 cells; type: cell-based, human; conditions: 10 uM, FIG. 40
# Description: Cells were then stained with the fluorescent ROS indicator, CellROX, and subjected to flow cytometry to quantitate total intracellular ROS.
# The electron transport chain (ETC) is known to be a primary generator of ROS in the cell. Most of the ROS is generated by Complexes I and III of the ETC Inhibition of Complex I results in electrons piling up and leaking to react with oxygen to produce ROS.
# All samples were analyzed at the same time in flow cytometry.
# [1] = system: multi-drug resistant ovarian cancer cell line OVCAR-3; test: Cell growth assay on OVCAR-3 cells; type: cell-based; conditions: OVCAR-3, ovarian carcinoma
# Description: (§1) Compositions were tested on CHOP-resistant G3 NHL cells that had been cultivated in RPMI medium for five days. Prior to assay, the cells were counted by haemocytometer and cell concentration standardized to 625,000 cells/ml. Test drugs were solubilized in 100% DMSO and then diluted to final assay concentration with 0.1M phosphate buffered saline (PBS) and a final DMSO concentration of 0.5%. Cells were added to assay plates containing the test drugs (rifabutin+148 ng/ml, 74 ng/ml, 37 ng/ml, or 0 ng/ml doxorubicin) and allowed to incubate for 96 hours at 37° C. and 5% CO2. The metabolic dye rezasurin was added to the wells of the assay plate at a final concentration of 20 μg/ml and the plates were incubated for an additional 24 hours. The plates were then read in a BMG Polarstar plate reader at wavelength (573-605) and the data plotted as OD versus increasing dilutions (i.e. decreasing total amounts) of rifabutin derivative concentration.
# (§2) In these experiments, the following cell lines were used: CHOP-resistant NHL cell line G3, CHOP-sensitive NHL cell line CRL2631, the multi-drug resistant sarcoma cell line MES-SA-Dx5; multi-drug-resistant breast cancer cell line MDA-MB-231, multi-drug resistant ovarian carcinoma cell line SK-OV3, multi-drug resistant ovarian cancer cell line NCI/ADR-RES, drug-sensitive ovarian cancer cell line OVCAR-5, and multi-drug resistant ovarian cancer cell line OVCAR-3. […]
# lymphoma cell line G3 = test: Cell growth assay (resazurin fluorescence) on CHOP-resistant G3 NHL cells; type: cell-based, human; conditions: for Magnitude of potentiation in combination with doxorubicin: G3, lymphoma B cells
# Description: as §1
# [2] = system: multi-drug resistant ovarian carcinoma cell line SK-OV3; test: Cell growth assay on SK-OV3 cells; type: cell-based, human; conditions: SK-OV3, ovarian carcinoma
# Description: as §1, §2
# [3] = system: multi-drug-resistant breast cancer cell line MDA-MB-231; test: Cell growth assay on MDA-MB-231 cells; type: cell-based; conditions: for IC50: Homo sapiens; for Magnitude of potentiation in combination with doxorubicin: MDA-MB-231, breast carcinoma
# Description: as §1
# (§3) In these experiments, the following cell lines were used: CHOP-resistant NHL cell line G3, CHOP-sensitive NHL cell line CRL2631, the multi-drug resistant sarcoma cell line MES-SA-Dx5; multi-drug-resistant breast cancer cell line MDA-MB-231, multi-drug resistant ovarian carcinoma cell line SK-OV3, multi-drug resistant ovarian cancer cell line NCI/ADR-RES, drug-sensitive ovarian cancer cell line OVCAR-5, and multi-drug resistant ovarian cancer cell line OVCAR-3.
# (§4) Additional cell lines used include: ovarian cancer OVCAR-8, T lymphoblastoid leukemia MOLT-4, dexamethasone-resistant multiple myeloma MM.1R, myeloid leukemia cells HL-60, osteosarcoma cells U-2 OS, and myeloma RPMI 8226.
# [4] = system: multi-drug resistant ovarian cancer cell line NCI/ADR-RES; test: Cell growth assay on NCI/ADR-RES cells; type: cell-based; conditions: NCI/ADR-RES, ovarian carcinoma
# Description: as §1, §3, §4
# [5] = analog alone, lymphoma cell line G3, read-out: IC50
# [6] = with 1 μM doxorubicin, lymphoma cell line G3, read-out: IC50 (μM) with doxorubicin (1 μM)
Compound,Magnitude of potentiation in combination with doxorubicin [1],IC50 (lymphoma cell line G3; [5]),Fold increase in potency over DOX alone (lymphoma cell line G3; lymphoma cell line G3),IC50 (lymphoma cell line G3; [6]),Magnitude of potentiation in combination with doxorubicin [2],also measured
"C=C(C)[C@H]1Cc2c(ccc3c2O[C@@H]2COc4cc(OC)c(OC)cc4[C@@H]2C3=O)O1 [Rotenone, rotenone]",,,,,,ROS levels (ROS in G3 lymphoma cells): induced ROS
"COC1C=COC2(C)Oc3c(C)c(O)c4c(c3C2N)C2=NC3(CCN(CC(C)C)CC3)NC2=C(NC(=O)C(C)=CC=CC(C)C(O)C(C)C(O)C(C)C(OC(C)=O)C1C)C4=O (stereo not shown) [RTI-181, 11-deoxy-11-amino-4-deoxy-3,4[2-spiro-[1-(2-methylpropyl)-piperidin-4-yl]]-(1H)-imidazo-(2,5-dihydro)rifamycin S]",+ (potentiation between 1.2 to 2.0 fold increase),52 µM,5.5 fold,0.43 µM,+++ (potentiation greater than 5 fold increase),Magnitude of potentiation in combination with doxorubicin (lymphoma cell line G3): +++ (potentiation greater than 5 fold increase)
"Nc1ccn([C@@H]2O[C@H](CO)[C@@H](O)C2(F)F)c(=O)n1 [Gemcitabine, gemcitabine]",,,,,,"IC50 ([3]; therapeutic drug alone, MDA-MB-231, read-out: IC50): > 32 µM; IC50 ([3]; therapeutic drug with Rifabutin, MDA-MB-231, read-out: IC50 (μM) with Rifabutin): 4.83 µM; Fold increase in potency ([3]; with vs without Rifabutin, MDA-MB-231): >6.6 fold"
"11-deoxy-11-imino-4-deoxy-3,4[2-spiro-[1- (ethylaminocarbonyl)-piperidin-4-yl]]-(1H)-imidazo-(2,5- dihydro)rifamycin S [RTI-82]",,> 64 µM,0.7 fold,3.5 µM,,Magnitude of potentiation in combination with doxorubicin [3]: +++ (potentiation greater than 5 fold increase)
O=c1[nH]c2ccccc2n1C1CCN(Cc2ccc(-c3nc4cc5[nH]cnc5cc4nc3-c3ccccc3)cc2)CC1 [Akt Inhibitor VIII],,,,,,"CHOP resistance (lymphoma cell line G3; G3 cells, varying amounts of Akt Inhibitor VIII): dose-dependent reversal of CHOP resistance"
"CC[C@]1(O)C[C@@H]2CN(CCc3c([nH]c4ccccc34)[C@@](C(=O)OC)(c3cc4c(cc3OC)N(C)[C@H]3[C@@](O)(C(=O)OC)[C@H](OC(C)=O)[C@]5(CC)C=CCN6CC[C@]43[C@@H]65)C2)C1 [Vinblastine, vinblastine]",,,,,,"IC50 (lymphoma cell line G3; Homo sapiens, therapeutic drug alone, G3, read-out: IC50): 8 µM; IC50 (lymphoma cell line G3; Homo sapiens, therapeutic drug with Rifabutin, G3, read-out: IC50 (μM) with Rifabutin): 1 µM; Fold increase in potency (lymphoma cell line G3; with vs without Rifabutin, G3): 8.0 fold"
"COC1C=COC2(C)Oc3c(C)c(O)c4c(c3C2N)C2=NC3(CCN(C(=O)NCC(C)C)CC3)NC2=C(NC(=O)C(C)=CC=CC(C)C(O)C(C)C(O)C(C)C(OC(C)=O)C1C)C4=O (stereo not shown) [RTI-183, 11-deoxy-11-amino-4-deoxy-3,4[2-spiro-[1-(isobutylaminocarbonyl)-piperidin-4-yl]]-(1H)-imidazo-(2,5-dihydro)rifamycin S]",+ (potentiation between 1.2 to 2.0 fold increase),> 64 µM,0.5 fold,5.19 µM,,
"COC1C=COC2(C)Oc3c(C)c(O)c4c(c3C2=N)C2=NC3(CCN(C(=O)NCC(C)C)CC3)NC2=C(NC(=O)C(C)=CC=CC(C)C(O)C(C)C(O)C(C)C(OC(C)=O)C1C)C4=O (stereo not shown) [RTI-182, 11-deoxy-11-imino-4-deoxy-3,4[2-spiro-[1-(isobutylaminocarbonyl)-piperidin-4-yl]]-(1H)-imidazo-(2,5-dihydro)rifamycin S]",+ (potentiation between 1.2 to 2.0 fold increase),62 µM,2.0 fold,1.2 µM,++ (potentiation between 2.1 to 5 fold increase),Magnitude of potentiation in combination with doxorubicin [3]: ++ (potentiation between 2.1 to 5 fold increase); Magnitude of potentiation in combination with doxorubicin (lymphoma cell line G3): + (potentiation between 1.2 to 2.0 fold increase)
"COC1C=COC2(C)Oc3c(C)c(O)c4c(c3C2=O)C2=NC3(CCN(C(=O)NCC(C)C)CC3)NC2=C(NC(=O)C(C)=CC=CC(C)C(O)C(C)C(O)C(C)C(OC(C)=O)C1C)C4=O (stereo not shown) [RTI-102, 4-deoxy-3,4[2-spiro-[1-(isobutylaminocarbonyl)-piperidin-4-yl]]-(1H)-imidazo-(2,5-dihydro)rifamycin S]",,> 64 µM,2.5 fold,0.95 µM,+++ (potentiation greater than 5 fold increase),Magnitude of potentiation in combination with doxorubicin (lymphoma cell line G3): ++ (potentiation between 2.1 to 5 fold increase)
"11-deoxy-11-imino-4-deoxy-3,4[2-spiro-[1-(2-methoxyethyl)- piperidin-4-yl]]-(1H)-imidazo-(2,5-dihydro)rifamycin S [RTI-51]",+ (potentiation between 1.2 to 2.0 fold increase),> 64 µM,0.7 fold,3.3 µM,+ (potentiation between 1.2 to 2.0 fold increase),
"COC1C=COC2(C)Oc3c(C)c(O)c4c(c3C2O)C2=NC3(CCN(CC(C)C)CC3)NC2=C(NC(=O)C(C)=CC=CC(C)C(O)C(C)C(O)C(C)C(OC(C)=O)C1C)C4=O (stereo not shown) [RTI-174, 11-deoxy-11-hydroxy-4-deoxy-3,4[2-spiro-[1-(2-methylpropyl)-piperidin-4-yl]]-(1H)-imidazo-(2,5-dihydro)rifamycin S]",+ (potentiation between 1.2 to 2.0 fold increase),51 µM,3.7 fold,0.64 µM,+ (potentiation between 1.2 to 2.0 fold increase),Magnitude of potentiation in combination with doxorubicin [4]: + (potentiation between 1.2 to 2.0 fold increase); Magnitude of potentiation in combination with doxorubicin (lymphoma cell line G3): ++ (potentiation between 2.1 to 5 fold increase)
CC(=O)OCOC(=O)CN(CC(=O)OCOC(C)=O)c1ccccc1OCCOc1ccccc1N(CC(=O)OCOC(C)=O)CC(=O)OCOC(C)=O [BAPTA-AM],,,,,,ROS levels (ROS in G3 lymphoma cells): induced ROS
"4-deoxy-3,4[2-spiro-[1-(n-propyloxycarbonyl)-piperidin-4-yl]]- (1H)-imidazo-(2,5-dihydro)rifamycin S [RTI-78]",,58 µM,29.5 fold,0.08 µM,,
"COC1C=COC2(C)Oc3c(C)c(O)c4c(c3C2=N)C2=NC3(CCN(CCN5CCOCC5)CC3)NC2=C(NC(=O)C(C)=CC=CC(C)C(O)C(C)C(O)C(C)C(OC(C)=O)C1C)C4=O (stereo not shown) [RTI-53, 11-deoxy-11-imino-4-deoxy-3,4[2-spiro-[1-(2-morpholinoethyl)-piperidin-4-yl]]-(1H)-imidazo-(2,5-dihydro)rifamycin S]",+ (potentiation between 1.2 to 2.0 fold increase),> 64 µM,0.2 fold,11.8 µM,+ (potentiation between 1.2 to 2.0 fold increase),
